One test has as its system 661W cells. The experiment in a line: Western blot of autophagy markers LC3-II and Atg5-12 in 661W cells treated with Fas activating antibody. The class given is cell-based, mouse. Further details: presence of LC3-II and Atg5-12 over time (prolongation of autophagy): dose or concentration left out as unconfirmed. The conditions noted are these: Fas activation. As to the method: The 661W photoreceptor cell line was generously provided by Dr. Muayyad Al-Ubaidi (Department of Cell Biology, University of Oklahoma Health Sciences Center, Oklahoma City, Okla.). The 661W cell line was maintained in Dulbecco's modified Eagle's medium containing 10% fetal bovine serum, 300 mg/L glutamine, 32 mg/L putrescine, 40 μL/L β-mercaptoethanol, and 40 μg/L of both hydrocortisone 21-hemisuccinate and progesterone. The media also contained penicillin (90 units/mL) and streptomycin (0.09 mg/mL). Cells were grown at 37° C. in a humidified atmosphere of 5% CO2 and 95% air. Retinas from experimental eyes with detachment (detached portion of retina only) and control eyes without detachment were dissected from the RPE-choroid, homogenized, and lysed in buffer containing 10 mM HEPES (pH 7.6), 0.5% […], 42 mM KCl, 1 mM phenylmethylsulfonyl fluoride, 1 mM EDTA, 1 mM EGTA, 1 mM dithiothreitol, 5 mM MgCl2, and one tablet of protease inhibitors per 10 mL buffer (Complete Mini; Roche Diagnostics GmbH, Madison, Wis.). 661W cells were plated at 150,000 cells per well in six-well culture dishes in growth media. […] The protein concentration of the supernatant was then determined (DC Protein Assay kit; Bio-Rad Laboratories, Hercules, Calif.). The protein samples were separated on SDS-polyacrylamide gels (Tris-HCl Ready Gels; Bio-Rad Laboratories). […]
For orientation: Immunoblotting shows a protein as a band on a membrane.

Another test relates to caspase 8. In words: Caspase 8 activity luminescent assay in Fas-activated 661W cells. It counts as cell-based, mouse. As to the method: Caspase 8 activity was measured by a commercially available luminescent cleavage assay kit (Promega, Madison, Wis.). The 661W cells were seeded in 96-well plates at 2,000 cells/well for 24 hours before treatment. Cells were treated with 500 ng/mL Fas-agonistic Jo2 monoclonal antibody and various concentrations of calpeptin or equal volume of DMSO. Caspase 8 activity was measured at 48 hours by incubating the cells with the proluminescent substrate in 96-well plates according to the manufacturer's instructions. Controls included untreated cells and wells with no cells. Luminescence was measured in a plate reader luminometer (Turner Biosystems, Sunnyvale, Calif.).

Another test concerns the target T1, calpain 1 (Rattus norvegicus, UniProt P97571).
T1 construct: Retinas from experimental eyes with detachment (detached portion of retina only) and control eyes without detachment were dissected from the RPE-choroid, homogenized, and lysed; from tissue; host or cells: rat retina (in vivo retinal detachment model)
T1 sequence (P97571 1-713): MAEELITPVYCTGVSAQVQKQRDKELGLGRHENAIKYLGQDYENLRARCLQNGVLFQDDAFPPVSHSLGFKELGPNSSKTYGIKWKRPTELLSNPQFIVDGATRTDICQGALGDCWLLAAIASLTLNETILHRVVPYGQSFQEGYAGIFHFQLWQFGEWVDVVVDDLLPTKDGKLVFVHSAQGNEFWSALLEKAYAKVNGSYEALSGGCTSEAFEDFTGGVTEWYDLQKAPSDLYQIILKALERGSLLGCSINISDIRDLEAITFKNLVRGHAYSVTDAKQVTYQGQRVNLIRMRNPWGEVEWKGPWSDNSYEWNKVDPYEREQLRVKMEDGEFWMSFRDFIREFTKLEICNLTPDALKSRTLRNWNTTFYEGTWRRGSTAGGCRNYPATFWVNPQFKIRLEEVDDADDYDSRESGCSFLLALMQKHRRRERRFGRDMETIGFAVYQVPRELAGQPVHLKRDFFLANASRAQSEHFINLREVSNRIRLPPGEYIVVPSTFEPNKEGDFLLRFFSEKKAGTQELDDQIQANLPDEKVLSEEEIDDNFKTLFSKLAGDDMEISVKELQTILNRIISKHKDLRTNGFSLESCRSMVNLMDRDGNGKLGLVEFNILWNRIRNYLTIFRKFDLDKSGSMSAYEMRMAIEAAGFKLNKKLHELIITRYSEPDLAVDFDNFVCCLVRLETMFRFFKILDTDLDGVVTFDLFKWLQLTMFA
T1 sequence (Q64537 1-270 partner): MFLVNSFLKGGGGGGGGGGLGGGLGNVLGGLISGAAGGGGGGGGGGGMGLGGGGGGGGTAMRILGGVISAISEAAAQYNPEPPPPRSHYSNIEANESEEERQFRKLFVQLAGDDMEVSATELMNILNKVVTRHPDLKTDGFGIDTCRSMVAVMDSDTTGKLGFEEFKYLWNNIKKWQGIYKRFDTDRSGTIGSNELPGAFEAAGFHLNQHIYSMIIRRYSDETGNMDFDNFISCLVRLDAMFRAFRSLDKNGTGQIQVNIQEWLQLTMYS
The experiment in a line: Experimental retinal detachment, western blot of calpain 1 specific cleaved alpha-spectrin in retina. The conditions noted are these: 0.2 μg subretinal at time of detachment, 7 days after detachment, vs vehicle (DMSO). It counts as in vivo.

Entries after “also recorded” stand apart in the source; their conditions may differ.

Text for calpain 1: Detachments were created in adult male Brown-Norway rats (300-400 g; Charles River Laboratories, Wilmington, Mass.) as described previously. Briefly, rodents were anesthetized with a 50:50 mix of ketamine/xylazine, and pupils were dilated with topical phenylephrine (2.5%) and tropicamide (1%). A 20-gauge microvitreoretinal blade was used to create a sclerotomy 2 mm posterior to the limbus, carefully avoiding lens damage. A subretinal injector (Glaser, 32-gauge tip; BD Ophthalmic Systems, Franklin Lakes, N.J.) was introduced through the sclerotomy into the vitreous cavity and then through a peripheral retinotomy into the subretinal space. […]
Retinas from experimental eyes with detachment (detached portion of retina only) and control eyes without detachment were dissected from the RPE-choroid, homogenized, and lysed in buffer containing 10 mM HEPES (pH 7.6), 0.5% IgEPal, 42 mM KCl, 1 mM phenylmethylsulfonyl fluoride, 1 mM EDTA, 1 mM EGTA, 1 mM dithiothreitol, 5 mM MgCl2, and one tablet of protease inhibitors per 10 mL buffer (Complete Mini; Roche Diagnostics GmbH, Madison, Wis.). […] The protein concentration of the supernatant was then determined (DC Protein Assay kit; Bio-Rad Laboratories, Hercules, Calif.). The protein samples were separated on SDS-polyacrylamide gels (Tris-HCl Ready Gels; Bio-Rad Laboratories). […]

For the molecule `CCCC[C@@H](C=O)NC(=O)[C@H](CC(C)C)NC(=O)OCc1ccccc1` [calpeptin], in the test with 661W cells (24 hours), the “dose at which LC3-II and Atg5-12 peaked (dose response for increasing autophagy)” value came to 25 µM. In addition, the “presence of LC3-II and Atg5-12 over time (prolongation of autophagy)” value in the test with 661W cells (various lengths of time, calpeptin as printed, vs Fas activation alone / DMSO) is “lasted for an extended period of time; also recorded: elongated presence of LC3-II and Atg5-12”. Moreover, the “caspase 8 activity” value in the test with caspase 8 (661W cells not treated with Fas activating antibody, calpeptin alone) is given as “no effect”; with caspase 8 (661W cells, Fas activating antibody 48 hours, 1 μM) it was “little effect”; in the test on caspase 8 (661W cells, Fas activating antibody 48 hours, 10 uM) it was “returned caspase 8 activity to baseline levels; also recorded: significantly reduced its activity back to baseline”; in the test with caspase 8 (661W cells, Fas activating antibody 48 hours, 25 uM) it was “returned caspase 8 activity to baseline levels; also recorded: significantly reduced its activity back to baseline”. In addition, the “cleaved calpain 1 specific alpha-spectrin in retina” value at calpain 1 is listed as “significantly less; also recorded: less cleaved alpha-spectrin”.

(Values after patent US20160015770A1, “COMPOSITIONS FOR TREATMENT OF RETINAL DETACHMENT” (THE REGENTS OF THE UNIVERSITY OF MICHIGAN, priority 2013, published 2016).)
